Reference: patent publication US20240408071A1, “NOVEL COMBINATION OF SEROTONIN RECEPTOR (5-HTR2B) ANTAGONIST AND AN IMMUNOMODULATOR AND CHEMOTHERAPEUTIC DRUGS FOR INHIBITION OF CANCER” (NATIONAL CENTRE FOR CELL SCIENCE, priority 2021, published 2024)

Tested on: B16F10 melanoma tumor
Experiment: Adoptive transfer of lymph node cells into NRG mice bearing MC38 and B16F10 tumors: B16F10 flank
Assay type: in vivo
Conditions: same recipient mice, other flank (FIG. 11B)
Protocol: FIG. 11 depicts the effect of 5-HTR antagonists on the antigen-specific CTL response MC38 tumor model in mice: (A) Representative experimental plan of the adoptive transfer experiment where NRG mice. In brief, NRG mice were inoculated with MC38 on one flank and B16F10 cells on the other. These mice received total lymph node cells from naïve C57BL/6J mice or MC38 tumor-bearing control or RS-127445 treated mice. (B) Tumor volume data from the above-described experiment was measured and plotted (C) Immunocytochemistry data showing expression of H2-Kb-[…]^+ (red) on MC38 cells transfected with pCL-neo-OVA plasmid on the right side and MC38 cells without transfection. DAPI is used as a counterstain. (D-E) C7BL/6J mice were inoculated with an MC38-ova cell line and treated with RS-127445 or left untreated. After 10 days of such treatment, Total lymph node cells were harvested tagged with CFSE, and cultured in the presence of ovalbumin protein (50 μg/ml) for 5 days. After 5 days cells were checked for CFSE expression by flow cytometry to check proliferation. Here is the data (D) showing the CFSE in CD8^+ cells. The statistical data of the total percentage of CFSE^− CD8 T cells corresponding with the percentage of proliferated CD8 T cells were plotted. […]

Q: Which “B16F10 tumor growth after transfer of antagonist primed total immune cells” value does the source give for `CC(C)c1cc(-c2ccc(F)c3ccccc23)nc(N)n1` [RS-127445] here?
A: Its value is “failed to control B16F10 tumor growth”.
